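Results reflect a 48-hour exposure of cells in 96-well plates to compound at five concentrations. Here, GI50 denotes the concentration required for 50% inhibition of growth. The concentration for full growth arrest is given as TGI.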 Some results are limits rather than exact numbers.

What all share (experiment): NCI-60 cell line screen, 48 h
Assay [1] deals with MOLT-4 leukemia.
Assay [2] has as its system HS 578T breast.
For assay [3], the system named is SK-MEL-2 melanoma.
In assay [4] the test system is EKVX NSCLC.
The test system of assay [5] is OVCAR-4 ovarian.
In assay [6] the test system is SK-OV-3 ovarian.
In assay [7] the test system is OVCAR-8 ovarian.
The subject of assay [8] is M14 melanoma.
The test system of assay [9] is NCI-H522 lung.
Assay [10] has as its system A549 NSCLC.

In the case of `N#Cc1c(N)nc(N2CCOCC2)c(C#N)c1-c1ccccc1Cl`, the GI50 in assay [1] is 34.2 µM; in [2], 23.6 µM; in assay [3], 41.9 µM; in assay [4], 37.6 µM; in assay [5], 14.5 µM; in assay [6] it was 41.2 µM. For the same compound, the GI50 is 42 µM in assay [7], 60.9 µM in assay [8], 0.0236 µM in assay [9] and 66.5 µM in [10]. Also, the TGI in [1] was above 100 µM; in assay [2], above 100 µM; in assay [3] it was above 100 µM; in assay [4], above 100 µM; in [5], 85.3 µM; in [6], above 100 µM. Besides, the TGI in [7] is above 100 µM; in assay [8] it was above 100 µM; in [9] it was 2.81 µM; in [10], above 100 µM.
Take `COc1cc2c(cc1OCCCCOc1ccc(-c3nc4ccccc4s3)cc1)N=C[C@@H]1CCCN1C2=O`: the GI50 in assay [1] is 0.924 µM; in [2], 0.891 µM; in assay [3], 0.393 µM; in [4] it was 2.56 µM; in assay [5] it was 1.24 µM; in assay [6], 1.92 µM. The GI50 in assay [7] is 1.19 µM; in assay [8], 0.908 µM; in [9], 0.565 µM; in assay [10], 2.8 µM. Further, the TGI in assay [1] is 3.86 µM; in assay [2] it was 4.43 µM; in [3] it was 1.83 µM; in assay [4], 6.39 µM; in assay [5], 9.02 µM; in assay [6], 5.08 µM. In addition, the TGI in assay [7] is 7.98 µM; in assay [8], 2.39 µM; in [9] it was 1.93 µM; in [10] it was 8.15 µM.
For `O=C1NN(c2ccccc2)C(=O)/C1=C/c1ccc(Br)o1`, the GI50 was 6.06 µM in [1]; 1.49 µM in [2]; 15.8 µM in assay [3]; 1.54 µM in assay [4]; 15.3 µM in assay [5]; 26.7 µM in assay [6]. The GI50 was 11 µM in [7], 7.92 µM in assay [9] and 12 µM in assay [10]. Also, the TGI in assay [1] is 24.6 µM; in assay [2] it was 3.11 µM; in assay [3], 44.7 µM; in assay [4] it was 36.6 µM; in [5] it was 29.5 µM; in [6], above 61.4 µM. Besides, the TGI in assay [7] came to 41.6 µM; in [8] it was 16.2 µM; in [9] it was 36.8 µM; in assay [10], 44.4 µM.
`NC1CCC(N[C@@H]2C[C@H]2c2ccccc2)CC1` (some centres undefined): the GI50 in assay [1] was 60 µM; in assay [2], above 100 µM; in assay [3] it was above 100 µM; in assay [4], above 100 µM; in assay [5] it was above 100 µM; in assay [6] it was above 100 µM. Moreover, the GI50 in [7], in [8], in [9] and in assay [10] was above 100 µM in each case. Also, the TGI in [1], in [2], in [3], in assay [4], in [5] and in assay [6] was above 100 µM throughout. The TGI in assay [7], in assay [8], in [9] and in assay [10] was above 100 µM throughout.
`O=C(Nc1ccccc1)Nc1cccc(Oc2nnc(Cl)c3ccccc23)c1`: the GI50 is 2.6 µM in assay [1]; 2.12 µM in [2]; 3.9 µM in [3]; 2.31 µM in assay [4]; 1.74 µM in [5]; 1.46 µM in assay [6]. Moreover, the GI50 is 2.6 µM in assay [7], 6.15 µM in [8], 2.8 µM in [9] and 3.47 µM in [10]. Moreover, the TGI amounted to 11.4 µM in [1]; 10.4 µM in assay [2]; 13.2 µM in [3]; 12.1 µM in assay [4]; 12.2 µM in assay [5]; 5.51 µM in [6]. For the same compound, the TGI in assay [7] was 6.53 µM; in assay [8], above 25 µM; in assay [9], 9.68 µM; in assay [10], 18.4 µM.
For `CC1(C)CC(Nc2ccc(Nc3ccccc3)cc2)CC(C)(C)N1`, the TGI in assay [1] is 53.7 µM; in assay [2], 48.8 µM; in [3] it was 52.9 µM; in assay [4], 81.4 µM; in assay [5], 61.9 µM; in assay [6] it was above 100 µM. Further, the TGI in assay [7] is 66.3 µM; in [8], 34.7 µM; in [9], 26.6 µM; in assay [10], above 86.2 µM.
For `CC(=O)OC1Oc2ccccc2-c2oc(=O)c(-c3cc4ccccc4oc3=O)cc21` (centres undefined), the GI50 is 25.4 µM in [1]; 30 µM in [2]; 35 µM in assay [3]; 26.4 µM in assay [4]; 23.1 µM in assay [5]; 13.7 µM in assay [6]. Also, the GI50 was 17.8 µM in assay [7], 36.6 µM in assay [8], 18.5 µM in [9] and 15.4 µM in assay [10]. For the same compound, the TGI in assay [1] was 81.8 µM; in assay [2] it was 89.2 µM; in [3], above 100 µM; in assay [4], 74.6 µM; in assay [5], 50.9 µM; in assay [6] it was 30 µM. Also, the TGI in assay [7] is 36.7 µM; in assay [8] it was above 100 µM; in assay [9] it was 36.3 µM; in [10], 33 µM.
As for `CC(C)c1ccc(NC(=S)NC(=O)c2ccccc2)cc1`, the TGI in assay [1] was 52.3 µM; in assay [2], above 100 µM; in [3] it was 35.8 µM; in assay [4] it was above 100 µM; in [5] it was 55.2 µM; in assay [6] it was above 100 µM. The TGI in [7] is above 100 µM; in assay [8], 40.7 µM; in assay [9], 37.5 µM; in assay [10], above 100 µM.

(Values after PubChem BioAssay (NCI).)
